The NIST ThermoML archive (doi:10.1016/j.jct.2014.02.012)
Numbers after ± are expanded uncertainties.

Key:
[1] = 100 kPa, Liquid mixture 1, Wilhelmy plate method
[2] = 298.15 K; for surface tension liquid-gas: Wilhelmy plate method; for viscosity / mass density: 101.33 kPa, Liquid; for viscosity: Capillary tube (Ostwald / Ubbelohde) method; for mass density: Vibrating tube method

Structure (SMILES) | interfacial tension ([1]; 298.15 K) [mN/m] | interfacial tension ([1]; 348.15 K) [mN/m] | surface tension liquid-gas [2] [mN/m] | viscosity [2] [mPa·s] | mass density [2] [kg/m3]
CCCCCCCCCCCC [dodecane] + O | 52.2 ± 0.3 | 49.6 ± 0.3 |  |  | 
CCCCCCCCCCCCCC[P+](CCCCCC)(CCCCCC)CCCCCC.O=S(=O)([N-]S(=O)(=O)C(F)(F)F)C(F)(F)F + O | 27.1 ± 0.2 | 25.6 ± 0.2 |  |  | 
O [water] |  |  | 72 ± 0.2 | 0.904 ± 0.019 | 
CCCCCCCCCCCCCC[P+](CCCCCC)(CCCCCC)CCCCCC.O=S(=O)([N-]S(=O)(=O)C(F)(F)F)C(F)(F)F + CCCCCCCCCCCC | 0.9 ± 0.2 | 0.6 ± 0.2 |  |  | 
CCCCCCCCCCCCCC[P+](CCCCCC)(CCCCCC)CCCCCC.O=S(=O)([N-]S(=O)(=O)C(F)(F)F)C(F)(F)F |  |  | 30.9 ± 0.3 | 311.4 ± 11 | 1065.5 ± 0.28
CCCCCCCCCCCC [dodecane] |  |  | 24.9 ± 0.2 | 1.356 ± 0.029 | 745.27 ± 0.24
